Source: EPA's ToxValDB 9.5 (doi:10.2903/j.efsa.2013.3469)
Converted amounts (≈) assume the structure as drawn.

Columns and labels:
Typhlodromus pyri [1] = assay: LR50; higher = less toxic; conditions: not reported; mortality
Typhlodromus pyri [2] = conditions: not reported; mortality
Bibionidae = conditions: chronic/long-term; duration: 28 days; development
Apis mellifera = conditions: acute; oral; unspecified; mortality
Tagia sp. = conditions: acute, duration: 14 days
Folsomia candida = conditions: chronic/long-term; mortality
Daphnia magna = conditions: chronic/long-term; duration: 21 days; reproduction
Anas platyrhynchos = conditions: oral, mortality

With CC1(C)[C@H](C(=O)O[C@H](C#N)c2cccc(Oc3ccccc3)c2)[C@@H]1/C=C\C(=O)OC(C(F)(F)F)C(F)(F)F [Acrinathrin] the LR50 (Typhlodromus pyri [1]) was 0.006 g/ha, the LD50 (Rattus norvegicus; acute, oral, mortality) was over 5000 mg/kg-day and the NOAEL (Rattus norvegicus; acute, oral, neurology) was 1 mg/kg-day. It also gave an NOAEL (Rattus norvegicus; reproduction developmental, no effects) of 9.4 mg/kg-day, an LD50 (Colinus virginianus; acute, oral, mortality) of over 2250 mg/kg-day and an NOEC (Colinus virginianus; reproduction developmental, reproduction) of 19.9 mg/kg-day. For the same compound, the NOEC (Colinus virginianus; short-term, oral, diet, mortality) was 325 mg/kg-day, the NOEC (Typhlodromus pyri [2]) was 0.00068 g/ha and the NOEC (Bibionidae) was 3.1e-05 mg/L. The LD50 (Apis mellifera) was 0.077 µg/piece, the NOEC (Tagia sp.; biomass) was 1.6 mg/kg and the LC50 (Tagia sp.; mortality) was over 1000 mg/kg. It also gave an NOEC (Folsomia candida) of under 1 mg/kg, an NOEC (Daphnia magna) of 3.2e-06 mg/L and an LD50 (Anas platyrhynchos; acute, unspecified) of over 2000 mg/kg-day. It also gave an NOEC (Anas platyrhynchos; short-term, feed) of 173 mg/kg-day, an LC50 (Pimephales promelas; acute, duration: 96 hours, mortality) of 1.7 ng/mL (≈ 3.14 nM) and an NOEC (Pimephales promelas; chronic/long-term, duration: 28 days) of 1.1e-05 mg/L.
